Structures can show the parent of a compound that is named as a salt. Where two headings read alike, the source gives them in different places.
What was measured:
[1] = molecular target: T1, PDE1 partially purified from bovine heart (Bos taurus, UniProt P14100); experiment: PDE1 enzyme inhibition assay (Example 3); assay type: biochemical
T1 construct: PDE1 partially purified from bovine heart was used; from tissue; host or cells: bovine heart
Description: (§1) In this example, a racemic mixture of flosequinan and the (+) and (−) enantiomers of flosequinan were subjected to biochemical enzyme assays to determine their respective percent inhibition of a variety of phosphodiesterases (PDE1-PDE6). The reaction conditions for each PDE assay were as follows.
(§2) PDE1: PDE1 partially purified from bovine heart was used. A racemic mixture of flosequinan, and each enantiomer of flosequinan, all at a molar concentration of 100 μM, were independently incubated with 13 μg PDE1 enzyme, 1.0 μM [^3H]cAMP and CaCl2/calmodulin in Tris buffer pH 7.5 for 20 minutes at 30° C. The reaction was terminated by boiling for 2 minutes, and the resulting AMP was converted to adenosine by addition of 10 mg/ml snake venom nucleotidase and further incubation at 30° C. for 10 minutes. Unhydrolyzed cAMP was bound to AGI-X2 resin, and the remaining [^3H]adenosine in the aqueous phase was quantitated by scintillation counting.

[2] = molecular target: T2, PDE2 partially purified from human platelets (Homo sapiens, UniProt O00408); experiment: PDE2 enzyme inhibition assay (Example 3); assay type: biochemical; conditions: for % Inhibition of PDE2: 100 μM
T2 construct: PDE2 partially purified from human platelets was used; from tissue; host or cells: human platelets
Description: as §1
as §2, with “PDE2: PDE2” for “PDE1: PDE1”, “human platelets” for “bovine heart”, “23” for “13”, “PDE2” for “PDE1”, “25 μM cAMP containing 0.05” for “1.0”, “[^3H]cAMP” for “[^3H]cAMP and CaCl2/calmodulin”

[3] = molecular target: T3, PDE6 partially purified from bovine retinal rod (Bos taurus, UniProt P11541+P23439); experiment: PDE6 enzyme inhibition assay (Example 3); assay type: biochemical; conditions: for % Inhibition of PDE6: 100 μM
T3 construct: from tissue; host or cells: bovine retinal rod
T3 sequence (P11541 2-856 limits assumed): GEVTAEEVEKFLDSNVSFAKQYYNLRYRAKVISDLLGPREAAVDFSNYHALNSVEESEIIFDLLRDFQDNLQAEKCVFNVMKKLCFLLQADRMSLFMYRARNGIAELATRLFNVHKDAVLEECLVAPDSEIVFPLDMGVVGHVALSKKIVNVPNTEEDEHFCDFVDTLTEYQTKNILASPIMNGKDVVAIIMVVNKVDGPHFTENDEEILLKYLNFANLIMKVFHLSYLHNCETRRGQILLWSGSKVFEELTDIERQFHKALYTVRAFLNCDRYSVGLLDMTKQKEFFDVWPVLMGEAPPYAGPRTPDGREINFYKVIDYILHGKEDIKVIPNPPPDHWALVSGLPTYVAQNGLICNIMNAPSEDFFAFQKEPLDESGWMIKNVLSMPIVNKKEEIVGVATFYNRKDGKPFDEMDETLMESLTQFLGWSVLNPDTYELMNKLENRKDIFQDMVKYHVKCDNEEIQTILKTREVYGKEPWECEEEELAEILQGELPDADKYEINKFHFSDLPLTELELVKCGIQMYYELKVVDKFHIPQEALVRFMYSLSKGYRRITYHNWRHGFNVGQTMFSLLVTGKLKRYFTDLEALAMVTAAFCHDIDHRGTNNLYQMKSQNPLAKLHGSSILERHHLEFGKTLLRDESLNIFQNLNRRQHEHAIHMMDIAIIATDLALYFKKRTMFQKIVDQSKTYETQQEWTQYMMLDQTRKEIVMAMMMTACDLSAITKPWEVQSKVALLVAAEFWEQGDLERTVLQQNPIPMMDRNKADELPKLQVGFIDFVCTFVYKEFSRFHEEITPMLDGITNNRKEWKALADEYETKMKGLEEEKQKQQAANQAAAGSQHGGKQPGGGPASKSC
T3 sequence (P23439 2-850 limits assumed): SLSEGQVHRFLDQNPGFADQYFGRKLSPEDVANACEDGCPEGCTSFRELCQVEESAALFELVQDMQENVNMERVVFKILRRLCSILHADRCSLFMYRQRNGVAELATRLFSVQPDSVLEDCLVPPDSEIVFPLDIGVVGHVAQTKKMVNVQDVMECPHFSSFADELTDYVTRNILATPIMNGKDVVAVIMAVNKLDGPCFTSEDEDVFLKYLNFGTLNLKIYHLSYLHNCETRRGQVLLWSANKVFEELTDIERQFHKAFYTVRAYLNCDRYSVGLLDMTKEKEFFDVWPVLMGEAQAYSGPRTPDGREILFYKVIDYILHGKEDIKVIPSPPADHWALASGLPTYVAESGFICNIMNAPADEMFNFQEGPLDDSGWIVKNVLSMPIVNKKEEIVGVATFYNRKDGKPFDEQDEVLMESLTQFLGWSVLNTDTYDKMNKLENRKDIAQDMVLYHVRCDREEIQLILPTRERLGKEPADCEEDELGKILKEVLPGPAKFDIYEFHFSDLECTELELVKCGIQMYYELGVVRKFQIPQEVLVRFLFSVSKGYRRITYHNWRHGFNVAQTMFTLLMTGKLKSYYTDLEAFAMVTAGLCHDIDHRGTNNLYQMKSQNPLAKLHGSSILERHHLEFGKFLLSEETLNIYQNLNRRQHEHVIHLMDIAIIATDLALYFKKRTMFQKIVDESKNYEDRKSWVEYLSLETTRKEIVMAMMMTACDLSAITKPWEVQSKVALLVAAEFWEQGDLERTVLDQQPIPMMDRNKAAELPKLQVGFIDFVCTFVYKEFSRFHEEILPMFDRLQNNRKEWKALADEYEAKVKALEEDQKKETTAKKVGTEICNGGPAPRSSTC
Description: as §1
(§3) PDE6: PDE6 partially purified from bovine retinal rod and activated by trypsin was used. A racemic mixture of flosequinan, and each enantiomer of flosequinan, all at a molar concentration of 100 μM, were independently incubated with 0.2 μg/ml active PDE6 and 100 μM cGMP containing 0.1 μM [^3H]cGMP in Tris buffer pH 7.5 for 20 minutes at 30° C. Each reaction was terminated by boiling for 2 minutes. The resulting GMP was converted to guanosine by addition of 10 mg/ml snake venom nucleotidase, and further incubated at 30° C. for 10 minutes. Unhydrolyzed cGMP was bound to AGI-X2 resin, and [^3H]guanosine remaining in the aqueous phase was quantitated by scintillation counting.

[4] = molecular target: T4, PDE5 partially purified from human platelets (Homo sapiens, UniProt O76074); experiment: PDE5 enzyme inhibition assay (Example 3); assay type: biochemical; conditions: for % Inhibition of PDE5: 100 μM
T4 construct: PDE5 partially purified from human platelets was used; from tissue; host or cells: human platelets
Description: as §1
PDE5: PDE5 partially purified from human platelets was used. A racemic mixture of flosequinan, and each enantiomer of flosequinan, all at a molar concentration of 100 μM, were independently incubated with 120 μg PDE5 enzyme and 1 μM cGMP containing 0.01 μM [^3H]cGMP in Tris buffer pH 7.5 for 20 minutes at 30° C. The reaction was terminated by boiling for 2 minutes, and the resulting GMP was converted to guanosine by addition of 10 mg/ml snake venom nucleotidase and further incubation at 30° C. for 10 minutes. Unhydrolyzed cGMP was bound to AGI-X2 resin, and the remaining [^3H]guanosine in the aqueous phase was quantitated by scintillation counting.

[5] = in vivo, po
[6] = molecular target: T5, PDE3 partially purified from human platelets (Homo sapiens, UniProt Q14432); experiment: PDE3 enzyme inhibition assay (Example 3); assay type: biochemical
T5 construct: PDE3 partially purified from human platelets was used; from tissue; host or cells: human platelets
Description: as §1
as §2, with “PDE3: PDE3” for “PDE1: PDE1”, “human platelets” for “bovine heart”, “PDE3 enzyme and 1 μM cAMP containing 0.01” for “PDE1 enzyme, 1.0”, “[^3H]cAMP” for “[^3H]cAMP and CaCl2/calmodulin”

[7] = tested on: PDE4 partially purified from human U-937 pronocytic cells; experiment: PDE4 enzyme inhibition assay (Example 3); assay type: biochemical; conditions: 100 μM
Description: as §1
as §2, with “PDE4: PDE4” for “PDE1: PDE1”, “human U-937 pronocytic cells” for “bovine heart”, “20” for “13”, “PDE4 enzyme and 1 μM cAMP containing 0.01” for “PDE1 enzyme, 1.0”, “[^3H]cAMP” for “[^3H]cAMP and CaCl2/calmodulin”

[8] = molecular target: T3, PDE6 partially purified from bovine retinal rod; experiment: PDE6 inhibition assay, Viagra versus racemic flosequinan (Example 1); assay type: biochemical
Description: as §3, with “PDE6” for “PDE6: PDE6”, “used. In four separate reactions, Viagra at molar concentrations of 0.3 μM, 1.0 μM, and 3.0 μM, and a 100 μM” for “used. A”, “of flosequinan” for “of flosequinan, and each enantiomer of flosequinan, all at a molar concentration of 100 μM,”, “were” for “were independently”, “by raising the temperature to 100° C.” for “by boiling”, “venom nucleotidase” for “venom nucleotidase,”

[9] = Plasma levels following oral administration

T1 sequence (P14100 1-514 isoform P14100-2): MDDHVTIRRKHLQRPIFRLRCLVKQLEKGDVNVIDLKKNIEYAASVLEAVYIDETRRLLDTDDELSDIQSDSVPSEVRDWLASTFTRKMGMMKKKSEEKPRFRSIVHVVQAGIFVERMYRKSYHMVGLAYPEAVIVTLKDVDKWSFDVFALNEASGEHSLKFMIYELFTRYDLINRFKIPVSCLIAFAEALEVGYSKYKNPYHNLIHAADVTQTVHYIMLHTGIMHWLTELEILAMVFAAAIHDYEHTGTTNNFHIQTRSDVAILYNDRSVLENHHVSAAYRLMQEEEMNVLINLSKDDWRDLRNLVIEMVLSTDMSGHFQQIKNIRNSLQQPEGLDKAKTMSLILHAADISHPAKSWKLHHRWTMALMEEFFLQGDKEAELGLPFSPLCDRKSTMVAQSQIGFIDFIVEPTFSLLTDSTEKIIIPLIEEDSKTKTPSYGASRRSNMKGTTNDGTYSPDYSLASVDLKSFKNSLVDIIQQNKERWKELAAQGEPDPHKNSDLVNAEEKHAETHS
T2 sequence (O00408 whole entry): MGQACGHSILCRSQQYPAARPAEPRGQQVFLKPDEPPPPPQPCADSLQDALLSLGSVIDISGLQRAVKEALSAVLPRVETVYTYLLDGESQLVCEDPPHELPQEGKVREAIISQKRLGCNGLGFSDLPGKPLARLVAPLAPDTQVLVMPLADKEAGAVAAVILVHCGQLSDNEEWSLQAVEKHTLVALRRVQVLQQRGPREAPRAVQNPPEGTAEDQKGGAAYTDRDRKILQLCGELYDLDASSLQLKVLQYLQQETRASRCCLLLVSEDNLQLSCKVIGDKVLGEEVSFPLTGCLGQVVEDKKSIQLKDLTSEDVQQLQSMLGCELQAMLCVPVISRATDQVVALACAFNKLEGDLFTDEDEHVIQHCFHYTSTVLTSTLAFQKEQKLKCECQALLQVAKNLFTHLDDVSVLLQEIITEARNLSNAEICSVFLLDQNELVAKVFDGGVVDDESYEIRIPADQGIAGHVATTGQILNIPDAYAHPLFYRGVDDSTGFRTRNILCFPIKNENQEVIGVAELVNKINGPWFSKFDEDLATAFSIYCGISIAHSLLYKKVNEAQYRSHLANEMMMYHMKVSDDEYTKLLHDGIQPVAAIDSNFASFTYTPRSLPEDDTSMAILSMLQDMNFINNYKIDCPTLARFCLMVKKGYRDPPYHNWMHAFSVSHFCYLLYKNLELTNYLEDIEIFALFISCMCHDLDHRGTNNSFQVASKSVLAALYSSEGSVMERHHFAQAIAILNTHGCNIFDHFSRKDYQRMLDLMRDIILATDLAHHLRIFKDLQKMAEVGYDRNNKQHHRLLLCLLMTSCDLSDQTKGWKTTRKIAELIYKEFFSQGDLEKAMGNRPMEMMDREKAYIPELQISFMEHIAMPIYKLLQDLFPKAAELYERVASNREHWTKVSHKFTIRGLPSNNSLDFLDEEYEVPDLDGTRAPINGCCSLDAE
T5 sequence (Q14432 whole entry): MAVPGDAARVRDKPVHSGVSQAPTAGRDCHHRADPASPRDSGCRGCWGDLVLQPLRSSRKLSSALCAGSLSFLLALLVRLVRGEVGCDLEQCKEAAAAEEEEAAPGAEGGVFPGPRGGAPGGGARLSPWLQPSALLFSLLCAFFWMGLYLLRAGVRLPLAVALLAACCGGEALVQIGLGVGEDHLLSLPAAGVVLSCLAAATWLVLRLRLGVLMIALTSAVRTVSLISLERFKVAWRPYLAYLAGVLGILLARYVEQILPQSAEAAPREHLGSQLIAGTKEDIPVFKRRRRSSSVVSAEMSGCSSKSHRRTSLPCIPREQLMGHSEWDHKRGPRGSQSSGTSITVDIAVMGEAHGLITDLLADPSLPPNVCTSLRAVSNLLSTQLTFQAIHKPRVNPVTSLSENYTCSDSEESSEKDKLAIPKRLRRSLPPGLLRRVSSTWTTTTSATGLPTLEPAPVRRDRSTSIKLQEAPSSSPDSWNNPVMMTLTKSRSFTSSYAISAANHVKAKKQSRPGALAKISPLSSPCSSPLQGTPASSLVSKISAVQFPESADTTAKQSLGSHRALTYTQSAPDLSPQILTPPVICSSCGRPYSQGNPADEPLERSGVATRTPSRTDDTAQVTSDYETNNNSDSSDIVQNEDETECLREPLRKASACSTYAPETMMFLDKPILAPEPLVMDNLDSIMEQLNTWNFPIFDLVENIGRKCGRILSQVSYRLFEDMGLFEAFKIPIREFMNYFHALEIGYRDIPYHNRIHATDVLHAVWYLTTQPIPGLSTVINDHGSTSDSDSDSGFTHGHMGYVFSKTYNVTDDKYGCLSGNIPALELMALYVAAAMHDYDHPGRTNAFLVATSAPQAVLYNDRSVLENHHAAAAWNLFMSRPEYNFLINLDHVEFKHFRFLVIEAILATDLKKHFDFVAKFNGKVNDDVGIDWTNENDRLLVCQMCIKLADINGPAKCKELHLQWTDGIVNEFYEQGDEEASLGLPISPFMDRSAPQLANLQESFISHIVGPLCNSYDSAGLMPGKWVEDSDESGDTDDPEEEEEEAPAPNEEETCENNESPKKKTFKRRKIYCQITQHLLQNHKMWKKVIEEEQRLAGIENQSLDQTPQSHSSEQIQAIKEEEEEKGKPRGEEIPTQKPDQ

## Cn1cc([S@@+](C)[O-])c(=O)c2ccc(F)cc21 [(+)-flosequinan]
[1]; 100 μM
  % Inhibition of PDE1: 28%
  PDE1 inhibitory activity compared with the (−) enantiomer: more PDE1 and PDE3 inhibitory activity
[2]
  % Inhibition of PDE2: 18%
[3]
  % Inhibition of PDE6: 22%
[4]
  % Inhibition of PDE5: 17%
[5]
  Time of peak plasma concentration: 1 to 2 h
[6]; 100 μM
  % Inhibition of PDE3: 32%
  PDE3 inhibitory activity compared with the (−) enantiomer: more PDE1 and PDE3 inhibitory activity
[6]; same molar concentration
  Increase in PDE3 inhibition compared to the (−) enantiomer: eight-fold
  PDE3 inhibition compared with racemic mixture of flosequinan: greater inhibition of PDE3 than a racemic mixture of flosequinan
[7]
  % Inhibition of PDE4: 6%

## Cn1cc([S+](C)[O-])c(=O)c2ccc(F)cc21 (single isomer, unassigned; (-)) [(−)-flosequinan]
[1]; 100 μM
  % Inhibition of PDE1: 11%
[2]
  % Inhibition of PDE2: 13%
[3]
  % Inhibition of PDE6: 21%
[4]
  % Inhibition of PDE5: 10%
[6]; 100 μM
  % Inhibition of PDE3: 5%
[7]
  % Inhibition of PDE4: 1%

## Cn1cc([S+](C)[O-])c(=O)c2ccc(F)cc21 (racemic) [Flosequinan, 7-fluoro-1-methyl-3-(methylsulphinyl)-4(1H)-quinolone, reference compound]
[1]
  inhibition at 100 µM: 31%
[2]
  inhibition at 100 µM: 18%
[3]
  inhibition at 100 µM: 21%
[8]; 100 μM compound
  inhibition at 100 µM: 36%
[8]; read-out: Concentration required for around 50% inhibition of PDE6
  IC50: > 100 µM
[8]; versus Viagra 0.3 μM
  Times more compound on a molar basis than Viagra needed for around 50% PDE6 inhibition: more than 300 times
[4]
  inhibition at 100 µM: 11%
[6]; 100 μM
  inhibition at 100 µM: 26%
[7]
  % Inhibition of PDE4: 24%

## CCCc1nn(C)c2c(=O)[nH]c(-c3cc(S(=O)(=O)N4CCN(C)CC4)ccc3OCC)nc12 [Viagra, Sildenafil citrate]
[8]; read-out: % Inhibition of PDE6, 0.3 μM compound
  inhibition at 0.3 µM: ~50%
[8]; read-out: % Inhibition of PDE6, 1.0 μM compound
  inhibition at 1 µM: 62%
[8]; read-out: % Inhibition of PDE6, 3.0 μM compound
  inhibition at 3 µM: 87%

## CSc1cn(C)c2cc(F)ccc2c1=O [metabolite]
[9]
  Time of peak plasma concentration: about seven
